[invAb] = inverted abasic unit; m = 2'-O-methyl; r = 2'-OH (RNA); f = 2'-fluoro
Tested on: CTGF protein
Experiment: CTGF Western Blot in siNA-transfected NHLF cells (6-well plate)
Type: cell-based, human
Conditions: for Mean % KD (30 nM, 72 h) n = 5: CTGF protein; for Mean % KD (30 nM, 72 h) n = 5 / Density (CTGF)/Density (α-Tubulin) (3 pM, 72 hours) / Density (CTGF)/Density (α-Tubulin) (300 pM, 72 hours) / Density (CTGF)/Density (α-Tubulin) (30 nM, 72 hours): NHLF cells; for Density (CTGF)/Density (α-Tubulin) (3 pM, 72 hours) / Density (CTGF)/Density (α-Tubulin) (300 pM, 72 hours): n = 3, ratio ± S.D.; for Density (CTGF)/Density (α-Tubulin) (30 nM, 72 hours): n = 5, ratio ± S.D.; for % Protein Reduction at 30 nM (72 hrs): human NHLF cells, mean ± S.D.
Description: NHLF cells were plated in 6-well plates at final counts of 70,000 cells/well in 2 ml of complete growth media. Transfection was performed using 2.5 uL of RNAiMax per well. Final concentration of siNAs was 30 nM (screen) and 30, 0.3, and 0.003 nM (dose response study). Protein lysates were harvested 24, 48, and 72 hours post-transfection (screen) and 72 hours post-transfection (dose response study). Protein lysates were prepared using Cell Extraction Buffer (Invitrogen, cat# FNN0011) according to manufacturer's instructions. Protein concentration was measured using a Bradford Quick Start Kit (Bio-Rad, cat# 500-0205).
The protein source for the Western Blot experiments were from transfection of NHLF cells in a 6 well plate, as described above.
Protein samples were diluted 1:1 in 2× Laemmli buffer with 5% β-mercapto-ethanol and incubated at 95° C. for 5 minutes. 40-50 ug of protein was loaded in each lane of 10% Tris-HCl gel. One lane was designated for MagicMark Protein Standard (Invitrogen # LC5602). The gel was run at 100V for approximately 2 hours. Protein was transferred to a PVDF membrane at 100V for 60 minutes. Once the transfer was finished, the membrane was blocked in 1% Casein in PBS (BioRad Cat#161-0783) for 1 hour on a plate rocker at room temperature followed by the overnight incubation at 4° C. with goat […] anti-CTGF primary antibody (Santa Cruz Biotechnology, cat# L-20) diluted 1:200 in 1% Casein in PBS. On the next day, the blot was washed 4×5 minutes in PBST (0.1% Tween-20 in PBS) solution and incubated for 30 minutes at room temperature with rabbit anti-goat secondary antibody (Pierce Biotechnology, cat# 31402) diluted 1:1,000 in 1% Casein in PBS. Then, the blot was washed 4×5 minutes with PBST and incubated for 1 minute with ECL Western Blotting Substrate (Pierce Biotechnology, Cat# 32106). The bands were visualized on the Bio-Rad VersaDoc Imager.
The protein bands were quantified by computing their density which is defined by the ratio between the total intensity of all pixels and the area of the rectangle drawn around each band (intensity/mm^2). The density was calculated by the BioRad software.
The level of protein was quantified using the Bio-Rad VersaDoc Imager according to the protocols of that piece of equipment. A pixel count was performed in each lane using an area of identical size. Each sample was then compared to the appropriate control treated sample and converted to a percent of protein remaining compared to control.
The effects of lead siNAs on CTGF protein level were compared to the effects of the universal control using a two tail Student's T-test to obtain a P value. P<0.05 was considered significant.
The densities of CTGF bands were normalized to the respective densities of α-Tubulin by calculating the ratio of the density of CTGF band and the density of α-Tubulin band. The ratios of the treatments were then compared to the ratio of the control group using an unpaired t-test with unequal variances.

| Substance | Mean % KD (30 nM, 72 h) n = 5 [%] | Density (CTGF)/Density (α-Tubulin) (3 pM, 72 hours) | Density (CTGF)/Density (α-Tubulin) (300 pM, 72 hours) | Density (CTGF)/Density (α-Tubulin) (30 nM, 72 hours) | % Protein Reduction at 30 nM (72 hrs) [%] |
| --- | --- | --- | --- | --- | --- |
| 48042-DC: siNA duplex; sense SEQ ID NO: 49 B GAcAuuAAcucAuuAGAcu TTB; antisense SEQ ID NO: 50 AGUcuAAuGAGuuAAuGucUU (sense GACAUUAACUCAUUAGACUTT; antisense AGUCUAAUGAGUUAAUGUCUU; sense: DNA at AGT, 2'-fluoro at CU, [invAb] at 5' end, 3' end, backbone not given here; antisense: sugars from the 5' end rrrffmmfmmmffmmfmffmm, backbone not given here) | 86 ± 13 | 0.45 ± 0.13 | 0.11 ± 0.06 | 0.09 ± 0.11 | 86 ± 13 |
| 48046-DC: siNA duplex; sense SEQ ID NO: 57 B cAcAGcAccAGAAuGuAuA TTB; antisense SEQ ID NO: 58 UAUAcAuucuGGuGcuGuGUU (sense CACAGCACCAGAAUGUAUATT; antisense UAUACAUUCUGGUGCUGUGUU; sense: DNA at AGT, 2'-fluoro at CU, [invAb] at 5' end, 3' end, backbone not given here; antisense: sugars from the 5' end rrrmfmffffmmfmffmfmmm, backbone not given here) | 82 ± 11 | 0.56 ± 0.3 | 0.13 ± 0.08 | 0.11 ± 0.10 | 82 ± 11 |
| 48047-DC: siNA duplex; sense SEQ ID NO: 59 B cGAGuAAuAuGccuGcuAu TTB; antisense SEQ ID NO: 60 AUAGcAGGcAuAuuAcucGUU (sense CGAGUAAUAUGCCUGCUAUTT; antisense AUAGCAGGCAUAUUACUCGUU; sense: DNA at AGT, 2'-fluoro at CU, [invAb] at 5' end, 3' end, backbone not given here; antisense: sugars from the 5' end rrrmfmmmfmfmffmfffmmm, backbone not given here) | 58 ± 26 | 0.51 ± 0.4 | 0.17 ± 0.1 | 0.22 ± 0.13 | 58 ± 26 |
| 48048-DC: siNA duplex; sense SEQ ID NO: 61 B GAuAGcAucuuAuAcGAGu TTB; antisense SEQ ID NO: 62 ACUcGuAuAAGAuGcuAucUU (sense GAUAGCAUCUUAUACGAGUTT; antisense ACUCGUAUAAGAUGCUAUCUU; sense: DNA at AGT, 2'-fluoro at CU, [invAb] at 5' end, 3' end, backbone not given here; antisense: sugars from the 5' end rrrfmfmfmmmmfmffmffmm, backbone not given here) | 83 ± 10 | 0.31 ± 0.2 | 0.09 ± 0.06 | 0.10 ± 0.10 | 83 ± 10 |
| 48055-DC: siNA duplex; sense SEQ ID NO: 75 B cAAGuuAuuuAAAucuGuu TTB; antisense SEQ ID NO: 76 AACAGAuuuAAAuAAcuuGUU (sense CAAGUUAUUUAAAUCUGUUTT; antisense AACAGAUUUAAAUAACUUGUU; sense: DNA at AGT, 2'-fluoro at CU, [invAb] at 5' end, 3' end, backbone not given here; antisense: sugars from the 5' end rrrmmmfffmmmfmmfffmmm, backbone not given here) | 84 ± 5 | 0.28 ± 0.04 | 0.10 ± 0.06 | 0.09 ± 0.04 | 84 ± 5 |

Source: patent US20120016011A1, “RNA Interference Mediated Inhibition of Connective Tissue Growth Factor (CTGF) Gene Expression Using Short Interfering Nucleic Acid (siNA)” (Merck Sharp & Dohme Corp., priority 2009, published 2012)
